In patent publication US10457707B2, “Substituted urea depsipeptide analogs as activators of the CLPP endopeptidase” (priority 2015, dated 2019):
≈ marks a conversion by molar mass, not a printed value. *1 amine or outer side, *2 acyl side, *3 side chain or, on linkers, in order; H or OH if unused. Where a SMILES comes first, the peptide text is derived from it. Bridges are numbered along the chain shown (N, C = ends). [ ]: non-standard residue; d: D form. The star is where a group is joined. Phe(3,5-F2) = N[C@@H](Cc1cc(F)cc(F)c1)C(=O)O; NH(4-OCF3-phenyl) = FC(F)(F)Oc1ccc(N*)cc1; Morpholine(3S-CO) = O=C(O)[C@@H]1COCCN1; NH(4-Cl-2-F-phenyl) = Fc1cc(Cl)ccc1N*; Pro(4R-Me) = C[C@H]1CN[C@H](C(=O)O)C1; Hyp = O=C(O)[C@@H]1C[C@@H](O)CN1; NMeT = CN[C@H](C(=O)O)[C@@H](C)O; aThr = C[C@H](O)[C@H](N)C(=O)O; CO = O=C([*:1])[*:2]

Legend:
[1] = target: T1, Sa-ClpP (Staphylococcus aureus, UniProt Q2G036); experiment: ADEP displacement fluorescence polarization assay (FP probe ADEP 2591); format: binding
T1 construct: made in house; host or cells: E. coli BL21(DE3)
T1 sequence (Q2G036 1-195): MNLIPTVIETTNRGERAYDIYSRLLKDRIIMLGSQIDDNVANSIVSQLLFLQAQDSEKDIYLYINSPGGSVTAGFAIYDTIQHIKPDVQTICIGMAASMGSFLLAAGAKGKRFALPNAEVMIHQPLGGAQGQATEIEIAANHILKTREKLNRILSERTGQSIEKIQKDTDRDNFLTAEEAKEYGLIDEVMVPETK
Summary of the method: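 Probe displacement was measured in mP after compounds sat 120 min at room temperature with pre-equilibrated (1 h) Sa-ClpP (15 μM) and ADEP 2591 FP probe (50 nM) in pH 8.0 Tris-HCl with 2% DMSO. Data were scaled between DMSO and 200 μM ADEP 2378 and fit by variable-slope log-inhibitor regression.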

[2] = tested on: Streptococcus pyogenes, ATCC 700294; experiment: Minimal inhibitory concentration assay (microbroth dilution); format: cell-based; conditions: Streptococcus pyogenes, ATCC700294; read-out: Minimal Inhibitory Concentrations S. pyogenes ATCC 700294
Summary of the method: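 Plates with two-fold compound dilution series in broth were incubated overnight, aerobically, at 37° C, following CLSI microdilution guidance.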

[3] = tested on: Staphylococcus aureus, NRS70; experiment: as above; format: cell-based; conditions: Staphylococcus aureus, NRS70; read-out: Minimal Inhibitory Concentrations S. aureus NRS70
Summary of the method: (§1)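 Paired MICs against USA 300 and its ClpP-inactivated counterpart test whether killing runs through ClpP. All strains: two-fold broth dilutions from 200 μM final, ~10^5 cfu/mL inoculum, overnight at 37 °C in air, lowest growth-free concentration read by eye.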

[4] = tested on: Staphylococcus aureus, ATCC 29213; experiment: as above; format: cell-based; conditions: ATCC29213, read-out: Minimal Inhibitory Concentrations S. aureus ATCC 29213
Summary of the method: as §1

[5] = tested on: Bacillus subtilis, ATCC 23857; experiment: as above; format: cell-based; conditions: Bacillus subtilis, ATCC23857; read-out: Minimal Inhibitory Concentrations B. subtilis ATCC 23857
Summary of the method: as §1

Row | Compound | IC50 [1] [µM] | MIC [2] [µM] | MIC [3] [µM] | MIC [4] [µM] | MIC [5] [µM]
1 | C[C@@H]1C[C@H]2C(=O)O[C@@H](C)[C@H](NC(=O)[C@H](Cc3cc(F)cc(F)c3)NC(=O)Nc3ccc(OC(F)(F)F)cc3)C(=O)N3CCC[C@H]3C(=O)N(C)[C@@H]([C@@H](C)O)C(=O)N[C@@H](C)C(=O)N2C1 [Compound 41, (S)-3-(3,5-difluorophenyl)-N-((2R,6S,9S,11aS,17S,18S,20aS)-9-((R)-1-hydroxyethyl)-2,6,10,18-tetramethyl-5,8,11,16,20-pentaoxohexadecahydro-1H,5H,16H-dipyrrolo[2,1-c:2′,1′-l][1]oxa[4,7,10,13]tetraazacyclohexadecin-17-yl)-2-(3-(4-(trifluoromethoxy)phenyl)ureido)propanamide] ({NH(4-OCF3-phenyl)-CO}-[Phe(3,5-F2)][aThr]P[NMeT]A[Pro(4R-Me)]; ester 2-C) | 7.53 ± 0.2 | 0.1 (≈ 0.0882 µg/mL) | 0.01 (≈ 0.00882 µg/mL) | 0.02 (≈ 0.0176 µg/mL) | 0.01 (≈ 0.00882 µg/mL)
2 | C[C@@H]1C[C@H]2C(=O)O[C@@H](C)[C@H](NC(=O)[C@H](Cc3cc(F)cc(F)c3)NC(=O)Nc3ccc(Cl)cc3F)C(=O)N3C[C@H](O)C[C@H]3C(=O)N3CCOC[C@H]3C(=O)N[C@@H](C)C(=O)N2C1 [Compound 316, (S)-2-(3-(4-chloro-2-fluorophenyl)ureido)-3-(3,5-difluorophenyl)-N-((6aS,8R,12S,13S,15aS,17R,21S,23aS)-8-hydroxy-13,17,21-trimethyl-6,11,15,20,23-pentaoxooctadecahydro-6H,11H,15H-[1,4]oxazino[3,4-i]dipyrrolo[2,1-c:2′,1′-l][1]oxa[4,7,10,13]tetraazacyclo-hexadecin-12-yl)propanamide] ({NH(4-Cl-2-F-phenyl)-CO}-[Phe(3,5-F2)][aThr][Hyp][Morpholine(3S-CO)]A[Pro(4R-Me)]; ester 2-C) | 6.9 ± 0.3 | < 0.02 | 0.078 (≈ 0.0674 µg/mL) | 0.078 (≈ 0.0674 µg/mL) | 0.313 (≈ 0.271 µg/mL)
